pEC50: −log10 of the molar value. Where two headings read alike, the source gives them in different places.
Key:
[1] = molecular target: T1, Hsp90 in C. albicans (SC5314) lysate (Candida albicans, UniProt P46598); test: biochemical; assay type: binding; settings: for FP signal: raw
T1 construct: endogenous in cells; host or cells: C. albicans SC5314 whole-cell lysate

Hsp90 in HEPG2 lysate = settings: for FP signal: raw
[2] = SC5314 lysate, 0.457 nM compound
[3] = SC5314 lysate, 1.372 nM compound
[4] = SC5314 lysate, 4.115 nM compound
[5] = SC5314 lysate, 12.346 nM compound
[6] = SC5314 lysate, 37.037 nM compound
[7] = SC5314 lysate, 111.111 nM compound
[8] = SC5314 lysate, 333.333 nM compound
[9] = SC5314 lysate, 1000 nM compound
[10] = SC5314 lysate, 3000 nM compound

T1 sequence (P46598 whole entry): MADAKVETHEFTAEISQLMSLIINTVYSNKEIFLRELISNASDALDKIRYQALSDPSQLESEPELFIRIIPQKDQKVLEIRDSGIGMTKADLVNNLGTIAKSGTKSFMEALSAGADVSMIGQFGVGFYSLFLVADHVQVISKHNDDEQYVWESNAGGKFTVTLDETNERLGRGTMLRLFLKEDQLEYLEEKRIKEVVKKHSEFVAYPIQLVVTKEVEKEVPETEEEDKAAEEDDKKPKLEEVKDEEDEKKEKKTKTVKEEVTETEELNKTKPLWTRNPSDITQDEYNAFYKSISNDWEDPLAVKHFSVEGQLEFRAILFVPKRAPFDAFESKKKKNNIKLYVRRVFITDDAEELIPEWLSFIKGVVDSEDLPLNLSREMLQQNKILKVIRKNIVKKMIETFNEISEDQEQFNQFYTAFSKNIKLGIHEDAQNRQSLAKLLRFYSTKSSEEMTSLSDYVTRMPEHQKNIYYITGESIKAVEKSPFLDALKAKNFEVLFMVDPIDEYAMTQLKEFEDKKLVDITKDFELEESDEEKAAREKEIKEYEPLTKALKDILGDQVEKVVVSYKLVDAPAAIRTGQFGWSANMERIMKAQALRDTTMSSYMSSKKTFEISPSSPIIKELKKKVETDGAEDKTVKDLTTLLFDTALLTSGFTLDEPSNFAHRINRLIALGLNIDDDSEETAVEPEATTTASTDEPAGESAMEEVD

SMILES: CCON=C1/C=C/C=C\[C@H]2O[C@H]2C[C@@H](C)OC(=O)c2c(O)cc(O)c(Cl)c2C1 [compound 333]
- Ratio re. GdA ([1]; EC50 relative to GdA, SC5314 lysate): 0.3152
- FP signal (raw) ([1]; SC5314 lysate, 0.457 nM): 168
- FP signal relative to 0 nM [1, 2]: 0.8317
- FP signal [1, 2]: 168
- FP signal (raw) ([1]; SC5314 lysate, 1.372 nM): 155
- FP signal relative to 0 nM [1, 3]: 0.7673
- FP signal [1, 3]: 155
- FP signal (raw) ([1]; SC5314 lysate, 4.115 nM): 114
- FP signal relative to 0 nM [1, 4]: 0.5644
- FP signal [1, 4]: 114
- FP signal (raw) ([1]; SC5314 lysate, 12.346 nM): 81
- FP signal relative to 0 nM [1, 5]: 0.401
- FP signal [1, 5]: 81
- FP signal (raw) ([1]; SC5314 lysate, 37.037 nM): 58
- FP signal relative to 0 nM [1, 6]: 0.2871
- FP signal [1, 6]: 58
- FP signal (raw) ([1]; SC5314 lysate, 111.111 nM): 39
- FP signal relative to 0 nM [1, 7]: 0.1931
- FP signal [1, 7]: 39
- FP signal (raw) ([1]; SC5314 lysate, 333.333 nM): 35
- FP signal relative to 0 nM [1, 8]: 0.1733
- FP signal [1, 8]: 35
- FP signal (raw) ([1]; SC5314 lysate, 1000 nM): 36
- FP signal relative to 0 nM [1, 9]: 0.1782
- FP signal [1, 9]: 36
- FP signal (raw) ([1]; SC5314 lysate, 3000 nM): 35
- FP signal relative to 0 nM [1, 10]: 0.1733
- FP signal [1, 10]: 35
- pEC50 ([1]; SC5314 lysate, not normalized, oxime panel experiment 220817, read-out: EC50): 8.27
- HepG2/SC5314 ([1]; ratio of GdA-normalized EC50s, human over fungal lysate): 1.134
- HepG2/SC5314 ([1]; ratio of GdA-relative EC50 ratios, HepG2 over SC5314): 1.134
- Ratio rel. GdA (HepG2) (Hsp90 in HEPG2 lysate; EC50 / EC50 of GdA in HepG2 lysate): 0.3573
- Ratio rel. GdA (HepG2) (Hsp90 in HEPG2 lysate; EC50 relative to GdA, HEPG2 lysate): 0.3573
- FP signal, Fxn Control (Hsp90 in HEPG2 lysate; HEPG2 lysate, log concentration 0.137354 (1.372 nM)): 0.9198
- FP signal, Fxn Control (Hsp90 in HEPG2 lysate; HEPG2 lysate, log concentration 0.61437 (4.115 nM)): 0.7075
- FP signal, Fxn Control (Hsp90 in HEPG2 lysate; HEPG2 lysate, log concentration 1.09153 (12.346 nM)): 0.5047
- FP signal, Fxn Control (Hsp90 in HEPG2 lysate; HEPG2 lysate, log concentration 1.56864 (37.037 nM)): 0.3066
- FP signal, Fxn Control (Hsp90 in HEPG2 lysate; HEPG2 lysate, log concentration 2.04576 (111.111 nM)): 0.2075
- FP signal, Fxn Control (Hsp90 in HEPG2 lysate; HEPG2 lysate, log concentration 2.52288 (333.333 nM)): 0.1651
- FP signal, Fxn Control (Hsp90 in HEPG2 lysate; HEPG2 lysate, log concentration 3 (1000 nM)): 0.184
- FP signal, Fxn Control (Hsp90 in HEPG2 lysate; HEPG2 lysate, log concentration 3.47712 (3000 nM)): 0.2028
- FP signal, Fxn Control (Hsp90 in HEPG2 lysate; HEPG2 lysate, log concentration -0.340084 (0.457 nM)): 0.9575
- FP signal (raw) (Hsp90 in HEPG2 lysate; HepG2 lysate, 0.457 nM): 203
- FP signal (Hsp90 in HEPG2 lysate; HepG2 lysate, 0.457 nM compound): 203
- FP signal (raw) (Hsp90 in HEPG2 lysate; HepG2 lysate, 1.372 nM): 195
- FP signal (Hsp90 in HEPG2 lysate; HepG2 lysate, 1.372 nM compound): 195
- FP signal (raw) (Hsp90 in HEPG2 lysate; HepG2 lysate, 4.115 nM): 150
- FP signal (Hsp90 in HEPG2 lysate; HepG2 lysate, 4.115 nM compound): 150
- FP signal (raw) (Hsp90 in HEPG2 lysate; HepG2 lysate, 12.346 nM): 107
- FP signal (Hsp90 in HEPG2 lysate; HepG2 lysate, 12.346 nM compound): 107
- FP signal (raw) (Hsp90 in HEPG2 lysate; HepG2 lysate, 37.037 nM): 65
- FP signal (Hsp90 in HEPG2 lysate; HepG2 lysate, 37.037 nM compound): 65
- FP signal (raw) (Hsp90 in HEPG2 lysate; HepG2 lysate, 111.111 nM): 44
- FP signal (Hsp90 in HEPG2 lysate; HepG2 lysate, 111.111 nM compound): 44
- FP signal (raw) (Hsp90 in HEPG2 lysate; HepG2 lysate, 333.333 nM): 35
- FP signal (Hsp90 in HEPG2 lysate; HepG2 lysate, 333.333 nM compound): 35
- FP signal (raw) (Hsp90 in HEPG2 lysate; HepG2 lysate, 1000 nM): 39
- FP signal (Hsp90 in HEPG2 lysate; HepG2 lysate, 1000 nM compound): 39
- FP signal (raw) (Hsp90 in HEPG2 lysate; HepG2 lysate, 3000 nM): 43
- FP signal (Hsp90 in HEPG2 lysate; HepG2 lysate, 3000 nM compound): 43
- pEC50 (Hsp90 in HEPG2 lysate; HepG2 lysate, oxime panel experiment 220817): 8.10
